The test system of one assay is Meloidogyne incognita. Put plainly: M. incognita miniaturized greenhouse assay on cucumber seedlings (root galling). The class given is in vivo. The conditions noted are these: cucumber roots, average of triplicate gall rating; for 8 ppm gall ratings: scale 0=0-5%, 1=6-20%, 2=21-50%, 3=51-100% root mass galled; for 1 ppm gall ratings: scale 0-3. On the procedure: The test compound is dissolved in an acetone solution and added to water. A sprouted cucumber seedling is placed into a vial with dry sand and the water-chemical solution is added immediately. Twenty four hours later Meloidogyne incognita eggs are added to the vials and 10 to 12 days later the roots are evaluated for nematode galling.
Cucumber seeds are sprouted for 3 days in moist paper towels. Acceptable sprouts should be 3 to 4 cm long with several lateral roots just emerging. Stock solutions of chemistry are prepared in a mixture of acetone and Triton X100 (412 mg in 500 mL) to a final concentration of 5 mg/mL. The chemical stock solution is then added to 10 mL deionized water plus 0.015% Triton X100 and mixed thoroughly. This is enough to test each condition in triplicate. Ten mL dry sand is added to each vial. At this time the solubility of the chemistry is visually determined and recorded as either ppt (large precipitates) or cloudy (fine precipitates). Seedlings are planted by tilting the vial and laying the seedling in the correct orientation so that the cotyledons are just above the sand and then tilting back to cover the radicles with sand. 3.3 ml water/chemical mix is added to each vial and the vials placed in racks under fluorescent light banks. The vials are inoculated two days after planting by adding 500 vermiform M. incognita eggs to each vial in 50 uL of deionized or spring water. The vials are then kept under the fluorescent lamps at ambient room temperature and watered as needed with 1 mL deionized water, usually twice during duration of test. Harvest of the cucumber plants is done 10 to 12 days after inoculation by washing sand off the roots. A root gall rating and visual phytotoxicity rating is assigned using the following scales: Gall rating scale (Gall: % root mass galled): 0=0-5%; 1=6-20%; 2=21-50%; and 3=51-100%. The average of the triplicate gall rating is then calculated: green=0.00-0.33 (no galls); yellow=0.67-1.33 (mild galling); orange=1.67-2.33 (moderate galling); red=2.67-3.00 (severe galling). Visual phytotoxicity scale is also assigned (Vis. tox; visual reduction in root mass compared to the control): rs1=mild stunting; rs2=moderate stunting; rs3=severe stunting.

A further assay deals with root knot nematode (RKN). As to the kind of experiment: RKN greenhouse soil assay on cucumber plants. The class given is in vivo, Meloidogyne incognita. The note with it: 0 day treatment, rated 14 days after egg inoculation. An excerpt:
Cucumber seeds are planted in a sandy soil mixture in two inch square plastic pots. When the cotyledons are fully opened and just as the first leaf begins to emerge, usually 7 days after planting, chemistry for the 7-day treatment is applied. One week later the chemistry for the 0 day treatment is applied. Separate plants are used for each application. The plants are generally in the 1-2 leaf stage now. At least four hours after the chemistry application the pots are inoculated with root knot nematode (RKN) eggs. Plants are rated for galling 14 days after the egg inoculation.
(§1) One milligram of chemistry per four pots is equal to one kilogram per hectare of chemical. A standard test uses four replications. For rates above 2 kg/ha, the desired amount of chemical is weighed into a 30 ml vial (example: 8 kg/ha rate=8 mg chemical in 30 ml vial). The chemical is dissolved in 2 ml of appropriate solvent, generally acetone. For rates below 2 kg/ha, 2 milligrams of chemistry is weighed into the vial and dissolved in 2 ml of the solvent. The appropriate amount of chemical concentrate is then pipetted into a separate 30 ml vial and solvent is added to bring the volume to 2 ml (example 0.5 kg/ha=0.5 ml of concentrate+1.5 ml solvent). Each dissolved concentrate is then brought to a total of 20 milliliters using 0.05% Triton X 100 surfactant solution.
(§2) Pots to be treated are moist but not saturated. To each of four pots, five milliliters of the appropriate chemical solution is pipetted to the media surface making sure to avoid contact with the base of the plant. Immediately following chemical application, using a mist nozzle, the pot surface is wetted sufficiently to saturate the pot watering in the chemistry. The chemical application is done in the morning.
Nematode eggs, either SCN or RKN, are added to distilled water to create a concentration of 1000 vermiform eggs […]. At least four hours after chemical treatment the eggs are applied to the treated pots plus non-treated check plants. A small hole about 1 cm deep is punched into the pot surface. […]

Assay [1] deals with soybean cyst nematode (SCN). As to the kind of experiment: SCN greenhouse soil assay on soybean plants. The assay is classed as in vivo, Heterodera glycines. The note with it: 0 day treatment, harvested 28 days after egg inoculation, tests a and b.
From the text: Soybeans seeds are planted in 100% sand in two inch square plastic pots. Chemical treatment is done when the soybeans show the first trifoliate beginning to emerge about 10 to 12 days after planting. At least four hours after chemical application the nematode soybean cyst nematode (SCN) eggs are applied and 28 days after the egg inoculation the test is harvested.
as §1, §2
Nematode eggs, either SCN or RKN, are added to distilled water to create a concentration of 1000 vermiform eggs […]. At least four hours after chemical treatment the eggs are applied to the treated pots plus non-treated check plants. A small hole about 1 cm deep is punched into the pot surface. One milliliter of the nematode egg slurry is pipetted into the hole. Immediately afterwards the hole is gently covered. Watering of the test plants is then restricted to only water as needed to prevent wilt for a period of 24 hours. […]

“And” between values parts separate entries of the source, which are not always exact repeats. Identical values can stand only once. Marks after values point to notes of the source that are not given here.

Eleven molecules from patent publication US9820486B2, “Compositions and methods for controlling nematodes” (Monsanto Technology LLC, priority 2009, dated 2017) can be followed below.

As for `Clc1ccc(-c2noc(Cc3ccco3)n2)cc1` [Name 1, 3-(4-chlorophenyl)-5-(furan-2-ylmethyl)-1,2,4-oxadiazole], in the assay with Meloidogyne incognita, the “8 ppm gall ratings” value is reported as 1.3^a. Take `Clc1cccc(-c2noc(Cc3ccco3)n2)c1` [Name 2, 3-(3-chlorophenyl)-5-(furan-2-ylmethyl)-1,2,4-oxadiazole]: the “8 ppm gall ratings” value in the assay with Meloidogyne incognita is recorded as 1.3^a. Take `Clc1ccc(Oc2noc(-c3ccco3)n2)cc1` [Name 3, 3-(4-chlorophenoxy)-5-(furan-2-yl)-1,2,4-oxadiazole]: the “percent control (galling reduction) relative to the control blank treatment, 0 day 1 kg/ha rate” value in the assay with root knot nematode (RKN) came to 89%. For the same molecule, the “8 ppm gall ratings” value in the assay on Meloidogyne incognita is reported as 0^b. The “percent control (cyst reduction) relative to the control blank treatment, 0 day 0.25 kg/ha rate” value in assay [1] is recorded as 79%^a, 79%^b. In the case of `Clc1cccc(Oc2noc(-c3ccco3)n2)c1` [Name 4, 3-(3-chlorophenoxy)-5-(furan-2-yl)-1,2,4-oxadiazole], the “percent control (galling reduction) relative to the control blank treatment, 0 day 1 kg/ha rate” value with root knot nematode (RKN) was found to be 83%. Also, in the assay with Meloidogyne incognita, the “8 ppm gall ratings” value is given as 0^b. Also, the “percent control (cyst reduction) relative to the control blank treatment, 0 day 0.25 kg/ha rate” value in assay [1] is 67% and 78%. On to `Clc1ccc(Cc2nsc(-c3ccco3)n2)cc1` [Name 5, 3-(4-chlorobenzyl)-5-(furan-2-yl)-1,2,4-thiadiazole], for which the “8 ppm gall ratings” value in the assay on Meloidogyne incognita is reported as 0.67^b. With `Clc1ccc(-c2coc(-c3ccco3)n2)c(Cl)c1` [Name 6, 4-(2,4-dichlorophenyl)-2-(furan-2-yl)oxazole], in the assay on Meloidogyne incognita, the “8 ppm gall ratings” value was 0.33^c.

In the case of `Cc1ccc(-c2coc(-c3ccco3)n2)c(C)c1` [Name 7, 4-(2,4-dimethylphenyl)-2-(furan-2-yl)oxazole], the “8 ppm gall ratings” value in the assay on Meloidogyne incognita is 1.33^c.

On to `Clc1ccc(-c2coc(-c3ccco3)n2)cc1` [Name 8, 4-(4-chlorophenyl)-2-(furan-2-yl)oxazole], for which the “8 ppm gall ratings” value in the assay on Meloidogyne incognita is 0.67^d.

`Clc1ccc(-c2cnc(Sc3cccs3)o2)cc1` [Name 9, 5-(4-chlorophenyl)-2-(thiophen-2-ylthio)oxazole]: the “8 ppm gall ratings” value with Meloidogyne incognita was 1.33^d.

Regarding `Clc1ccc(-c2cnc(-n3cccc3)o2)cc1` [Name 10, 5-(4-chlorophenyl)-2-(1H-pyrrol-1-yl)oxazole], the “percent control (galling reduction) relative to the control blank treatment, 0 day 1 kg/ha rate” value in the assay with root knot nematode (RKN) is 100%. Moreover, the “1 ppm gall ratings” value in the assay with Meloidogyne incognita is 1.33.

In the case of `CNC(=O)O/N=C(\SC)C(=O)N(C)C` [Oxamyl, reference compound], the “1 ppm gall ratings” value in the assay on Meloidogyne incognita was 1.33^e. For the same molecule, the “percent control (cyst reduction) relative to the control blank treatment, 0 day 0.25 kg/ha rate” value in assay [1] came out at 67%^b.
